Molecules are shown by their SMILES. Activity calls are given as the source filed them. The calls are words filed in the database; no cut-off is given here.

The results in this text go back to ChEMBL document CHEMBL3797126, “Oxaspirol B with p97 Inhibitory Activity and Other Oxaspirols from Lecythophora sp. FL1375 and FL1031, Endolichenic Fungi Inhabiting Parmotrema tinctorum and Cladonia evansii” (J Nat Prod, 2016).

Test [1] deals with T1, Transitional endoplasmic reticulum ATPase (Homo sapiens, UniProt P55072). As to the kind of experiment: Inhibition of p97 (unknown origin) ATPase activity up to 200 uM after 10 mins by malachite green dye based visible spectrophotometry.
Target sequence in this assay (P55072 2-806 limits assumed): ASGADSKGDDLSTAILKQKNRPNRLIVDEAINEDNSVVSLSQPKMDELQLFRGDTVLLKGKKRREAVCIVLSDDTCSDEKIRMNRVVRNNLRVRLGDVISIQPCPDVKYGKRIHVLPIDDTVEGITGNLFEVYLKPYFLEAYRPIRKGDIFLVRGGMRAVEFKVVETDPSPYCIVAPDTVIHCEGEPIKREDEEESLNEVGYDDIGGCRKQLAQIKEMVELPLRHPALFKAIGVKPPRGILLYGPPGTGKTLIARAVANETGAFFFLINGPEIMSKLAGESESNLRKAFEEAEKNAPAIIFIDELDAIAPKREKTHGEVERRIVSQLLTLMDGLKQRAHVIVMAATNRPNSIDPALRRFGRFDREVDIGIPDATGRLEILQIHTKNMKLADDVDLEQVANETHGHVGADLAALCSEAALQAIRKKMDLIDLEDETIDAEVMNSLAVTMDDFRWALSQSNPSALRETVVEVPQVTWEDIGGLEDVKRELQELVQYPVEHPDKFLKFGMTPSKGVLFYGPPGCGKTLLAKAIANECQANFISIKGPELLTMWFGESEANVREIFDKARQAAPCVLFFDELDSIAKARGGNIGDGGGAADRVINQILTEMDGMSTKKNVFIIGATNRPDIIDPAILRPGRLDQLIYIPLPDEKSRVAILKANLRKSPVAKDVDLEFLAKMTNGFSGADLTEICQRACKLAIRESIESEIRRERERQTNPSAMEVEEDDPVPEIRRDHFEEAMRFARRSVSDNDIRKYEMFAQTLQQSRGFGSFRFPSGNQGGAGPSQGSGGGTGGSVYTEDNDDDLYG
The target of test [2] is T1, Transitional endoplasmic reticulum ATPase. In words: Reversible inhibition of p97 (unknown origin) ATPase activity after prolonged incubation followed by dialysis.
Target sequence in this assay (P55072 2-806 limits assumed): as above
The target in test [3] is chaperonin GroEL (Escherichia coli) (UniProt P0A6F5). In words: Inhibition of Escherichia coli chaperonin GroEL up to 200 uM.
Chain of chaperonin GroEL (Escherichia coli) (P0A6F5 whole entry, looked up): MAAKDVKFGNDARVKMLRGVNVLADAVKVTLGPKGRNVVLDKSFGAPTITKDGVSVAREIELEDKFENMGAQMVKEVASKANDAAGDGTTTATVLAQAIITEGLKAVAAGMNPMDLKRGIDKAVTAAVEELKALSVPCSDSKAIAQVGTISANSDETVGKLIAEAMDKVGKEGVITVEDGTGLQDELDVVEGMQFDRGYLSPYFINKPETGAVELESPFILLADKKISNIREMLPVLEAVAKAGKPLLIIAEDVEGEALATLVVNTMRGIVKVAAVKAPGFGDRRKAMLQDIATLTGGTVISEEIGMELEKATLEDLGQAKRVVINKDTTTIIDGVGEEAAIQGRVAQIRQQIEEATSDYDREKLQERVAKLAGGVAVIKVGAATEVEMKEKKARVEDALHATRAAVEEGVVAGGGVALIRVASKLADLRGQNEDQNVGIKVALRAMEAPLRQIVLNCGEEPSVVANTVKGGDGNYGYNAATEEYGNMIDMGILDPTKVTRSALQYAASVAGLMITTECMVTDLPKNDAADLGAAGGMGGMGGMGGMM
Test [4] has as its target Vesicle-fusing ATPase (Homo sapiens) (UniProt P46459). In words: Inhibition of type 2 AAA+ N-ethylmaleimide sensitive factor (unknown origin) up to 200 uM.
Test [5] concerns the target T1, Transitional endoplasmic reticulum ATPase. In words: Inhibition of p97 (unknown origin) ATPase in HEK293 cells expressing UbG76VGFP fusion protein assessed as level of UbG76VGFP rescued by measuring GFP fluorescence loss by flow cytometry. It counts as cell-based.
Target sequence in this assay (P55072 2-806 limits assumed): as the sequence (P55072 2-806 limits assumed) above
The target in test [6] is ATP-dependent clpX-like chaperone, mitochondrial (Homo sapiens) (UniProt O76031). As to the kind of experiment: Inhibition of type 1 AAA+ chaperone ClpX (unknown origin) up to 200 uM.
Chain of ATP-dependent clpX-like chaperone, mitochondrial (Homo sapiens) (O76031 whole entry): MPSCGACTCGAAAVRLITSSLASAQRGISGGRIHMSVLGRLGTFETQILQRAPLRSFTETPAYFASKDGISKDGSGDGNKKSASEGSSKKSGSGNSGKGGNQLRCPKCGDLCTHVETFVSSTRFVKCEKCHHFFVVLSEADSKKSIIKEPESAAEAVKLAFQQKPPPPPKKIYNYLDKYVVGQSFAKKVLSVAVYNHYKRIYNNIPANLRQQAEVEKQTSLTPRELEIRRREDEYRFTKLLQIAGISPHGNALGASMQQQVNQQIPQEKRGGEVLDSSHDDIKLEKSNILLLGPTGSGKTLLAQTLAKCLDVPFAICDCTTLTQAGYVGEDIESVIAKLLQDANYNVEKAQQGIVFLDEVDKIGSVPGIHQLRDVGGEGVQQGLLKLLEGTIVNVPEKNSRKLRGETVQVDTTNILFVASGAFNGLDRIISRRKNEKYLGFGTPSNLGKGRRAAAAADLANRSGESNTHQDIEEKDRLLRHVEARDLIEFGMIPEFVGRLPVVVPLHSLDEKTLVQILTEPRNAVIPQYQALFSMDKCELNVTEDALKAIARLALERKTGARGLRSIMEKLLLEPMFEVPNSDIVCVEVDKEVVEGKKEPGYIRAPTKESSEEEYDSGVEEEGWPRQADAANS
Test [7] deals with T1, Transitional endoplasmic reticulum ATPase. Particulars: 100 uM.
Target sequence in this assay (P55072 2-806 limits assumed): as the sequence (P55072 2-806 limits assumed) above
Description: Reversible inhibition of p97 (unknown origin) ATPase activity at 100 uM after prolonged incubation of 6 hrs followed by dialysis for 2 hrs by malachite green dye based visible spectrophotometry
The target is the same in test [8]. In words: Inhibition of p97 (unknown origin) ATPase in HEK293 cells expressing T cell receptor alpha-GFP assessed as level of T cell receptor alpha-GFP rescued by flow cytometry. It counts as cell-based.
Target sequence in this assay (P55072 2-806 limits assumed): as above
For test [9] the target is unchanged. The settings on record: 200 uM.
Target sequence in this assay (P55072 2-806 limits assumed): as above
Description: Inhibition of p97 cysteine-less mutant (unknown origin) at 200 uM after 10 mins by malachite green dye based visible spectrophotometry
For test [10] the target is unchanged. As to the kind of experiment: Inhibition of p97 (unknown origin) ATPase activity after 10 mins by malachite green dye based visible spectrophotometry.
Target sequence in this assay (P55072 whole entry): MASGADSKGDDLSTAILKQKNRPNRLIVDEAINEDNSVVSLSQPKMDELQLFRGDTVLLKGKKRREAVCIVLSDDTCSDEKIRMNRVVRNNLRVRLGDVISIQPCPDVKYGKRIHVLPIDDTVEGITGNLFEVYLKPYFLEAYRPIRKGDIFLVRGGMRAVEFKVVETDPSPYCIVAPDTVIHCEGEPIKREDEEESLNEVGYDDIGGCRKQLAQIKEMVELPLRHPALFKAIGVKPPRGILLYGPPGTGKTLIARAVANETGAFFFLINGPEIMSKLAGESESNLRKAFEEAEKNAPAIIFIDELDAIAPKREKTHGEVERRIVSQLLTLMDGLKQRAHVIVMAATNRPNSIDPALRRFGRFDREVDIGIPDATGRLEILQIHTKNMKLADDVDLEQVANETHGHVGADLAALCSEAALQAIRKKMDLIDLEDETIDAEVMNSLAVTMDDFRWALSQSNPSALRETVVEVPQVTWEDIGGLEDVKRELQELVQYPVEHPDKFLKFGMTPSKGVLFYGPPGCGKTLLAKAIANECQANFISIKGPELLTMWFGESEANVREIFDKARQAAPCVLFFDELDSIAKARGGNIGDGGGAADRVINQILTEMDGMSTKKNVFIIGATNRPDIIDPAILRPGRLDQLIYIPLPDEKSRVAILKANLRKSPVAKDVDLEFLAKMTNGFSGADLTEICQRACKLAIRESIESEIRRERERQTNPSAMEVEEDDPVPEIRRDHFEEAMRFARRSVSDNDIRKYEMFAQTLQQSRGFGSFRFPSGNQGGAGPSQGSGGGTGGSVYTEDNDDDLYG
Test [11] concerns the target Transitional endoplasmic reticulum ATPase (Homo sapiens, UniProt P55072, C209A). As to the kind of experiment: Inhibition of p97-C209A mutant (unknown origin) after 10 mins by malachite green dye based visible spectrophotometry.
For test [12], the target named is Transitional endoplasmic reticulum ATPase (Homo sapiens, UniProt P55072, C522A). As to the kind of experiment: Inhibition of p97-C522A mutant (unknown origin) after 10 mins by malachite green dye based visible spectrophotometry.
Chain of Transitional endoplasmic reticulum ATPase (Homo sapiens, UniProt P55072, C522A) (P55072 2-806 C522A limits assumed): as the sequence (P55072 2-806 limits assumed) above, with C521A counted along it

Chain of Transitional endoplasmic reticulum ATPase (Homo sapiens, UniProt P55072, C209A) (P55072 2-806 C209A limits assumed): as the sequence (P55072 2-806 limits assumed) above, with C208A counted along it
Chain of Vesicle-fusing ATPase (Homo sapiens) (P46459 whole entry, the tested form may be a part): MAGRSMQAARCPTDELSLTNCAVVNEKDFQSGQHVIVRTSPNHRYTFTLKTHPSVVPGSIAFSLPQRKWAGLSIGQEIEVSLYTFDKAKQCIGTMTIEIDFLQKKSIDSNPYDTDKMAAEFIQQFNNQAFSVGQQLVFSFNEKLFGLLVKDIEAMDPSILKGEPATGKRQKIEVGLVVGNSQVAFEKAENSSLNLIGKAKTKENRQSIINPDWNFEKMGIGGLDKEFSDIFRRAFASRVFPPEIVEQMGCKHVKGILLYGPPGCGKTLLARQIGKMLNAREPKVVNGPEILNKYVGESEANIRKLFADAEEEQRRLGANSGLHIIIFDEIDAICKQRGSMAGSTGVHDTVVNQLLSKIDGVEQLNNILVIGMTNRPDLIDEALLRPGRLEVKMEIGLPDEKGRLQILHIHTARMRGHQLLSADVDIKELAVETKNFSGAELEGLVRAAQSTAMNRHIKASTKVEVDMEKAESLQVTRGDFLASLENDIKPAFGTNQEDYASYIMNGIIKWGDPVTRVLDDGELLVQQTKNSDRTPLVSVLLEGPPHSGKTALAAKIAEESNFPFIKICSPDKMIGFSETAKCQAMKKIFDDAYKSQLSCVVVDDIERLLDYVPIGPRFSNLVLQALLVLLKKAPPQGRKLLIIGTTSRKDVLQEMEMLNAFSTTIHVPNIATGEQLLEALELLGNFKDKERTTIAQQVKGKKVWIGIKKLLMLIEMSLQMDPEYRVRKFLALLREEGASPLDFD

Take `C=C1OC(=O)[C@]2(C1=O)[C@H](/C=C/C=C/CCC)C=C[C@@H](OC(C)=O)[C@@H]2OC(C)=O`: the inhibition entry in [1] is “inactive”.

Take `C=C1OC(=O)[C@@]2(C1=O)[C@H](/C=C/C=C/CCC)C=C[C@@H](OC(C)=O)[C@@H]2OC(C)=O`: the inhibition result in test [1] was “inactive”.

Consider `C[C@H]1CCC/C=C/C(=O)c2c(O)cc(O)cc2CC(=O)O1`, for which the inhibition entry in test [2] is “inactive”.

`C=C1OC(=O)C2(C1=O)[C@H](/C=C/C=C/CCC)C=C[C@@H](O)[C@@H]2O` (mixture of isomers): the inhibition entry in test [3], in test [4], in test [6] and in test [9] was “inactive” each time. The inhibition entry in [5] and in [8] was “Dose-dependent effect” in each case. The inhibition result in test [7] was “Active”. Further, the IC50 stood at 31.2 µM in test [10], 18 µM in [11] and 26.3 µM in test [12].
